# Values of other authors in US20210361700A1 (priority 2020, published 2021).
# Entries after “also recorded” stand apart in the source; their conditions may differ. Read-outs that look alike come from different tables or passages of the source.
# Tests used:
# [1] = tested on: T cell function; conditions: for T cell function in older adults: supplementation
# [2] = tested on: acute respiratory infections; conditions: for colds: secondary analysis, older adults
# [3] = tested on: hepatitis B and tetanus vaccines; conditions: for antibody titer / antibody response to vaccines: in vivo
# [4] = tested on: vascular endothelial function; conditions: meta-analyses of randomized controlled trials
# [5] = tested on: strep pneumonia; conditions: old mice; by reducing neutrophil migration and inflammatory cytokines
# [6] = tested on: influenza
# [7] = target: COVID-19 S-protein (Severe acute respiratory syndrome coronavirus 2, UniProt P0DTC2)
# [8] = tested on: SARS-CoV ACE2 receptor; conditions: studies with SARS-CoV; listed as quercetin
# [9] = target: 3CLpro of SARS-CoV (Severe acute respiratory syndrome coronavirus, UniProt P0C6X7)
# [10] = tested on: 3C-like protease (3CLpro) activity of COVID-19
# [11] = tested on: influenza; conditions: animal models of influenza
# [12] = tested on: rhinovirus; conditions: rhinovirus infection in mice (COPD)
# [13] = target: 3CLpro of MERS (Middle East respiratory syndrome-related coronavirus, UniProt K9N7C7)
# [14] = target: Plpro protease of SARS-CoV (Severe acute respiratory syndrome coronavirus, UniProt P0C6X7)
# [15] = tested on: respiratory syndrome virus-1 vaccine; conditions: large mammal model
# [16] = tested on: acute respiratory infections; conditions: N=40; P=0.004; listed as quercetin
# [17] = tested on: upper respiratory infection
# [18] = tested on: endothelial cells
# [19] = tested on: pro-inflammatory cytokines, such as TNF-α, IL-6 and IL-8; conditions: acute viral respiratory infection
# [20] = tested on: influenza vaccine; conditions: experimental models, including influenza vaccine
# [21] = tested on: colds or influenza
# [22] = tested on: influenza, adenovirus, Ebola, and others; conditions: high affinity, nonspecific binding to viral surface proteins
# [23] = tested on: TLR4 and NF-κB protein levels, ROS, acute tissue injury; conditions: models of lung injury
# [24] = tested on: inflammation
# [25] = target: RNA-dependent RNA polymerase of SARS-CoV (Severe acute respiratory syndrome coronavirus, UniProt P0C6X7)
# [26] = tested on: common cold (often caused by coronaviruses); conditions: short-term zinc supplementation at onset of symptoms; 17 RCTs pooled; 95% CI 0.81 to 2.50; listed as zinc
# [27] = tested on: acute respiratory infections; conditions: for lower respiratory infection: zinc supplementation, older adults
# [28] = subset of subjects 40+ years (N=325), secondary analysis
# 3CLpro of MERS, sequence (K9N7C7 3248-3553 limits assumed): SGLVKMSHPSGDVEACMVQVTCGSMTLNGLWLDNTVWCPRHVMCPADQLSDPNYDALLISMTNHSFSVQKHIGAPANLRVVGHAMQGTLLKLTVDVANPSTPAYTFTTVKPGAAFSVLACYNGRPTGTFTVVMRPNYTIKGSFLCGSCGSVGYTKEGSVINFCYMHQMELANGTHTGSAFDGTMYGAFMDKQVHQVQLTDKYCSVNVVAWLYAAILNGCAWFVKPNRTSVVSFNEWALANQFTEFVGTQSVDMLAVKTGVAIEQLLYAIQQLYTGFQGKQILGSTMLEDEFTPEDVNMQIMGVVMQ
compound,measurement,setting,value
Vitamin E,cell-dividing and IL-producing capacities of naive T cells,"[1]; naive T cells, but not memory T cells",increased
same,T cell function in older adults,[1],increases
same,risk of total acute respiratory infections,[2]; nursing home residents,reduced the risk
same,colds,[2],Decreased colds in older adults
same,colds,[2]; listed as vitamin E,reduced the risk
same,pneumonia,[2]; subset of nursing home residents with polymorphism,Decreased pneumonia in a subset
same,in vivo delayed-type hypersensitivity skin response,[3],improves
same,antibody titer / antibody response to vaccines,[3],increase; also recorded: improves
same,vascular endothelial function,[4],improve
same,survival from strep pneumonia infection,[5],Increases survival from
same,survival in viral pneumonia,"[6]; mouse, in vivo",increases survival
same,viral load in viral lung infections,"[6]; mouse, in vivo",Reduces viral load in viral
same,excessive lung inflammatory responses / inflammatory cytokine production,"[6]; viral infection, influenza",dampens; also recorded: Reduces inflammatory
"O=c1c(O)c(-c2ccc(O)c(O)c2)oc2cc(O)cc(O)c12 [Quercetin, quercetin]","antagonist of S-protein binding to host ACE2 receptor, computer modeling",[7],other compounds as a top
same,"antagonist of S-protein binding to host ACE2 receptor, computer modeling",[7]; listed as quercetin,top potential antagonist
same,binding to ACE2 receptor / antagonism of S-protein binding,[8],binds
same,inhibition of 3CLpro of SARS-CoV,[9],inhibits
same,inhibition of 3CLpro activity of COVID-19,[10],Inhibits the 3C-like protease
same,"superoxide radical formation, lung pathology, overall risk of infection induced by influenza",[11],Reduces superoxide
same,viral replication and risk of acute infection,[11],inhibits
same,cytokine storm / inflammation and lung injury,[12],inhibits cytokine storm and reduces lung injury
same,inhibition of 3CLpro of MERS,[13],inhibits
same,inhibition of Plpro protease of SARS-CoV,[14],inhibits
same,response to respiratory syndrome virus-1 vaccine,[15],improves
same,incidence of acute respiratory infections,[16],significantly reduced
same,effect on rates of upper respiratory infections,"[17]; overall, N=1,002",no overall significant effect
same,reduced duration of upper respiratory infection (total sick days),[17]; [28],(−31%) in a secondary analysis
same,reduced severity of upper respiratory infection (symptom severity),[17]; [28],severity (−36%) and total sick days
same,effects in vitro on endothelial cell pathways,[18]; in vitro,several beneficial effects
"O=C(O[C@@H]1Cc2c(O)cc(O)cc2O[C@@H]1c1cc(O)c(O)c(O)c1)c1cc(O)c(O)c(O)c1 [EGCG, epigallocatechin gallate]",inhibition of 3CLpro of SARS-CoV,[9],Inhibits the (3CL^pro) activity
same,pro-inflammatory cytokines,[19],down-regulates; also recorded: Down-regulatcs pro-
same,immune response to vaccination,[20],potentiated
same,"OR, clinically diagnosed influenza infection",[21]; 95% CI=0.07-0.76,0.25
same,"HR, days free from influenza infection",[21]; 95% CI=0.09-0.84,0.27
same,reduced clinically diagnosed influenza infection,[21]; in vivo,75%
same,reduced days free from influenza infection,[21]; in vivo,73%
same,infectivity of a wide range of viruses,[22],Inhibits infectivity of a wide
same,biomarkers of endothelial dysfunction such as ICAM-1 and VCAM-1,[18],lowers
same,endothelin-1 production,[18]; endothelial cells,reduces
same,nitric oxide (NO) release,[18]; endothelial cells,induces
same,excessive endothelial oxidative stress,[18]; through effects on the Nrf2/HO-1 pathway,reduces
same,"TLR4 and NF-κB protein levels, ROS, acute tissue injury",[23],Suppresses inflammatory
zinc,inflammation,[24],Reduces inflammation.
same,inhibition of RNA-dependent RNA polymerase,[25],Inhibits the RNA-dependent
same,T cell function in older adults,[1],Increases T cell function in older
same,T cell function in older adults,[1]; listed as zinc,increases
same,antibody titer / antibody response to vaccines,[3],increase; also recorded: restores
same,reduced days of illness,[26],-1.65 days
same,acute respiratory infections in the elderly,"[27]; double-blind, placebo controlled trial",reduced
same,lower respiratory infection,[27],adults and reduces lower
same,lower respiratory infection,[27]; listed as zinc,reduces
